Converted amounts (≈) assume the structure as drawn. “Also recorded” adds a separate entry of the source. Like-named read-outs stand apart in the source and are kept apart here.
How the values were obtained:
P. aeruginosa = experiment: MIC and MBC determinations in vitro, P. aeruginosa; type: cell-based; details: P. aeruginosa clinical isolate; for MIC: 24 h culture; for MBC: solid medium 24 h
Procedure: (§1) The three strains of MRSA, P. aeruginosa, and E. coli used in this experiment were from clinical isolates, which were provided by the People’s Liberation Army 304 Hospital.
(§2) To evaluate the antibacterial activities of newly synthesized N (7) position modified fluoroquinolones, the minimum inhibitory (MIC) and bactericidal (MBC) concentrations of these compounds toward bacteria were measured.

E. coli = experiment: MIC and MBC determinations in vitro, E. coli; type: cell-based; details: Escherichia coli, E. coli clinical isolate; for MIC: 24 h culture; for MBC: solid medium 24 h
Procedure: as §1, §2

MRSA [1] = experiment: MIC and MBC determinations in vitro, MRSA; type: cell-based; details: MRSA clinical isolate; for MIC: 24 h culture; for MBC: solid medium 24 h, read-out: MBC
Procedure: as §1, §2

[2] = system: MRSA, P. aeruginosa, and E. coli; experiment: MIC and MBC values stated over the three strains together; type: cell-based
Procedure: as §1, §2

MRSA cells = experiment: Cell wall damage monitored by atomic force microscopy (AFM); type: cell-based; details: 10 μM, 37°C, 30 min
Procedure: To observe the structural changes in the bacterial surface after the administration of balofloxacin derivative 2-e, atomic force microscope assay was performed. The bacterial suspension was diluted with LB liquid medium to 10^7 CFU/ml. The bacterial solution and the drug solution were mixed in an equal volume so that the concentration of 1e and 2-e was 10 μM in the final solution, respectively. And after mixing, it was incubated at 37°C for 30 min, together with the control group in the same way. After that, the sample was centrifuged at 9,000 rpm for 5 min and the supernatant was discarded, while the precipitate was washed twice with physiological saline in the same volume and centrifuged at 9,000 rpm for 5 min. Finally, the bacterial sample, prepared by dispersion in the same volume of physiological saline solution, was dropped onto the surface of the mica plate (about 0.5 cm^2), dried naturally at ambient temperature, and scanned by an atomic force microscope.

MRSA [3] = experiment: Time-dependent antibacterial effects in vitro; type: cell-based; details: for antibacterial activity in early and late stages of the exponential growth phase: 10 × MIC; for log10 CFU after the first 8 h: early exponential phase, start log10 CFU 5.5, 10 × MIC
Procedure: In order to further verify the antibacterial effect of the representative compound 2-e, time-dependent bactericidal activity of 2-e against MRSA was determined. This study referred to the reported methods ([Ling et al., 2015]). MRSA was cultured overnight in LB liquid and the bacterial solution at 10^9 CFU/ml tested on the machine was diluted at 1:10,000 with LB liquid medium and cultured at 37°C, 180 rpm. […] Time-dependent bacterial colonies were evaluated at 4 or 8 h intervals as follows: 100 μL of the mixture at the current time point was taken and centrifuged at 10,000 rpm for 2 min, and the pellet formed was dispersed with PBS, which was diluted by the ten-fold dilution method. 100 μL of bacterial dilution was evenly spread on LB solid medium at 37°C for 24 h. The colonies counted, according to national standards, accounted for the drug’s time-dependent antibacterial results. The same experimental operation was repeated three times independently.

Hemolytic activity = type: cell-based, rabbit; details: male, New Zealand white, rabbit, red cell suspension from rabbit blood; even at high concentrations (> 10^5 × MIC), 37°C, 24 h; read-out: hemolysis rate
Procedure: (§3) The animal experiment was approved by the Laboratory Animal Management Committee/Laboratory Animal Welfare Ethics Committee, Institute of Radiation Medicine, Chinese Academy of Medical Sciences (No. IRM-DWLL-2019153). Hemolysis anemia is one of the major adverse reactions of antibiotics. To assess the blood compatibility of N (7) position modified balofloxacin, the hemolytic activity of 2-e was tested. Fresh rabbit blood, obtained from the ear vein of a male New Zealand white rabbit, was diluted at a ratio of 1:20 in volume with PBS, centrifuged and resuspended in PBS at 1,000 rpm for 5 min to form an experimental red cell suspension. 500 μL drug 2-e solution and equal volumes of blood suspension were mixed in which the final drug concentration was 500, 250, 125, 62.5, 31.25, 15.62, 7.81, 3.91, 1.95, and 0.98 μg/ml, respectively, these mixtures were incubated at 37°C for 24 h. The positive control group was an equal volume of diluted blood cells mixed with an equal volume of 0.5% Triton X-100. The negative control group was mixed with an equal volume of PBS and diluted blood cells. After incubation, the mixture in a series of centrifuge tubes was centrifuged under the same conditions, and 200 μL of the supernatant was aspirated and transferred to a 96-well plate. The release of hemoglobin from the main contents was measured at A405nm using a microplate reader (Thermo, Varioskan Flash 3001, United States). Each data were from the triplicate experiments. The percentage of hemolysis in the hemolysis test was calculated according to the following formula: %Hemolysis=(A405 test sample−A405 negative control)/(A405 positive control−A405 negative control).

MCF-7 = experiment: Cell viability assay (MTS), MCF-7; type: cell-based, human; details: MCF-7
Procedure: (§4) To investigate the biocompatibility of the synthesized balofloxacin derivative, the cytoxicity of 2-e on human normal cells (3T3, L-02) and tumor cells (BEL-7402, H520, A549, and MCF-7) was studied. As an experimental example human liver cells (L-02) growing in the log phase, were plated in the 96-well plate at a density of 5000 cells/well. The cells were cultured at 37°C for 24 h under 5% CO2 medium. Then different concentrations of 1e and 2-e were added, the L-02 cells were cultured at 37°C for 48 h under a 5% CO2 atmosphere. Then the medium was aspirated, 100 μL of serum-free medium and 20 μL of MTS were added into each well, and L-02 was incubated at 37°C for 1 h under a 5% CO2 atmosphere. After that, the absorbance of the solutions at 490 nm was obtained using a microplate reader and calculated cell survival rate according to the following formula: Cell survive rate(%)=(ODtest−ODblank)/(ODcontrol−ODblank)×100%.

[4] = Cell viability assay (MTS), MCF-7; type: cell-based, human; details: human, MCF-7 tumor cells; MCF-7, 100 μmol/L, 48 h
Procedure: as §4

BEL-7402 = experiment: Cell viability assay (MTS), BEL-7402; type: cell-based, human; details: BEL-7402
Procedure: as §4

[5] = Cell viability assay (MTS), BEL-7402; type: cell-based, human; details: human, BEL-7402 tumor cells; BEL-7402, 100 μmol/L, 48 h
Procedure: as §4

3T3 = experiment: Cell viability assay (MTS), 3T3; type: cell-based; details: 3T3
Procedure: as §4

[6] = Cell viability assay (MTS), 3T3; type: cell-based; details: mouse, 3T3 cells; 3T3, 100 μmol/L, 48 h
Procedure: as §4

H520 = experiment: Cell viability assay (MTS), H520; type: cell-based, human; details: H520
Procedure: as §4

[7] = Cell viability assay (MTS), H520; type: cell-based, human; details: human, H520 tumor cells; H520, 100 μmol/L, 48 h
Procedure: as §4

L-02 = experiment: Cell viability assay (MTS), L-02; type: cell-based, human; details: L-02
Procedure: as §4

[8] = Cell viability assay (MTS), L-02; type: cell-based, human; details: human, L-02 cells (normal liver cells); L-02, 100 μmol/L, 48 h
Procedure: as §4

A549 = experiment: Cell viability assay (MTS), A549; type: cell-based, human; details: A549
Procedure: as §4

[9] = Cell viability assay (MTS), A549; type: cell-based, human; details: human, A549 tumor cells; A549, 100 μmol/L, 48 h
Procedure: as §4

[10] = system: rabbit red cell suspension; experiment: Hemolytic activity; type: cell-based
Procedure: as §3

[11] = Pseudomonas aeruginosa, read-out: MIC
[12] = Pseudomonas aeruginosa, read-out: MBC
[13] = Staphylococcus aureus, MRSA, 24 h, read-out: MIC
[14] = Staphylococcus aureus, MRSA, 24 h
[15] = range over MIC and MBC and the three strains, read-out: MIC and MBC values

SMILES	melting point	MIC (P. aeruginosa; [11])	MBC (P. aeruginosa; [12])	MIC (E. coli)	MBC (E. coli)	MIC (MRSA [1]; [13])	MBC (MRSA [1]; [14])	MBC [2, 15]	MIC (P. aeruginosa)	MBC (P. aeruginosa)	structural change of MRSA cells in AFM image (MRSA cells)	antibacterial activity in early and late stages of the exponential growth phase (MRSA [3]; MRSA)	log10 CFU after the first 8 h (MRSA [3])	hemolysis at 24 h (Hemolytic activity)	further results
CC(=O)NC1(c2c(F)cc3c(=O)c(C(=O)O)cn4c3c2OCC4C)CC1 (stereo not shown) [Compound 2-g, 10-(1-Acetamidocyclopropyl)-9-fluoro-3-methyl-7-oxo-2,3-dihydro-7H-[1,4]oxazino[2,3,4-ij]quinoline-6-carboxylic acid]	273.1 to 274.1 °C	25 µg/mL (≈ 69.4 µM)	50 µg/mL (≈ 139 µM)	25 µg/mL (≈ 69.4 µM)	50 µg/mL (≈ 139 µM)	25 µg/mL (≈ 69.4 µM)	50 µg/mL (≈ 139 µM)	25 to 50 µg/mL	–	–	–	–	–	–	–
CNC1CCCN(c2c(F)cc3c(=O)c(C(=O)O)cn(C4CC4)c3c2OC)C1 (stereo not shown) [Compound 1e, balofloxacin]	–	0.078 µg/mL (≈ 0.2 µM)	0.156 µg/mL (≈ 0.401 µM)	0.078 µg/mL (≈ 0.2 µM)	0.156 µg/mL (≈ 0.401 µM)	0.078 µg/mL (≈ 0.2 µM)	0.156 µg/mL (≈ 0.401 µM)	–	0.078 µg/mL (≈ 0.2 µM)	0.156 µg/mL (≈ 0.401 µM)	ruptured and there was an outflow of cellular contents	good antibacterial activity	0	≤ 5%	–
C[C@H]1COc2c(C3(N)CC3)c(F)cc3c(=O)c(C(=O)O)cn1c23 [Compound 1g, pazufloxacin, reference compound]	–	0.313 µg/mL (≈ 0.983 µM)	0.625 µg/mL (≈ 1.96 µM)	0.156 µg/mL (≈ 0.49 µM)	0.313 µg/mL (≈ 0.983 µM)	0.156 µg/mL (≈ 0.49 µM)	0.313 µg/mL (≈ 0.983 µM)	0.156 to 0.625 µg/mL	–	–	–	–	–	–	–
COc1c(N2CCCC(N(C)C(=O)C3CCCC3)C2)c(F)cc2c(=O)c(C(=O)O)cn(C3CC3)c12 (stereo not shown) [Compound 16-e, 1-Cyclopropyl-6-fluoro-8-methoxy-7-(3-(N-methylcyclopentanecarboxamido)piperidin-1-yl)-4-oxo-1,4-dihydroquinoline-3-carboxylic acid]	105.1 to 106.4 °C	0.313 µg/mL (≈ 0.645 µM)	0.625 µg/mL (≈ 1.29 µM)	20 µg/mL (≈ 41.2 µM)	40 µg/mL (≈ 82.4 µM)	0.313 µg/mL (≈ 0.645 µM)	0.625 µg/mL (≈ 1.29 µM)	–	–	–	–	–	–	–	–
COc1c(N2CCCC(N(C)C(C)=O)C2)c(F)cc2c(=O)c(C(=O)O)cn(C3CC3)c12 (stereo not shown) [Compound 2-e, 1-Cyclopropyl-6-fluoro-8-methoxy-7-(3-(N-methylacetamido)piperidin-1-yl)-4-oxo-1,4-dihydroquinoline-3-carboxylic acid]	201.6 to 202.3 °C	0.039 µg/mL (≈ 0.0904 µM)	0.078 µg/mL (≈ 0.181 µM)	2.5 µg/mL (≈ 5.79 µM)	5 µg/mL (≈ 11.6 µM)	0.0195 to 0.039 µg/mL (≈ 0.0452 to 0.0904 µM)	0.039 µg/mL (≈ 0.0904 µM)	–	0.039 µg/mL (≈ 0.0904 µM)	0.078 µg/mL (≈ 0.181 µM)	could effectively destroy the membrane and wall of MRSA cells; also recorded: complete discharge of their contents and substantial fragmentation	good antibacterial activity	0	≤ 5%	toxicity toward cell line (MCF-7): low toxicity; viability at 48 h, 100 μmol/L [4]: ≥ 80%; toxicity toward cell line (BEL-7402): low toxicity; viability at 48 h, 100 μmol/L [5]: ≥ 80%; toxicity toward cell line (3T3): low toxicity; viability at 48 h, 100 μmol/L [6]: ≥ 80%; toxicity toward cell line (H520): low toxicity; viability at 48 h, 100 μmol/L [7]: ≥ 80%; MIC (MRSA [1]): 0.0195 µg/mL (≈ 0.0452 µM); MBC ([2]; bound over MIC and MBC, converted to μmol/L, read-out: MIC and MBC): < 12 µM; toxicity toward cell line (L-02): low toxicity; also recorded: did not show toxicity; viability at 48 h, 100 μmol/L [8]: ≥ 80%; time-dependent antibacterial effect, early logarithmic growth phase (MRSA [3]; MRSA): bactericidal effects occurred; time-dependent antibacterial effect, late logarithmic growth phase (MRSA [3]; MRSA): bacterial inhibition occurred; toxicity toward cell line (A549): low toxicity; viability at 48 h, 100 μmol/L [9]: ≥ 80%; hemolytic activity [10]: not hemolytic

Reference: article PMC9437215, “Synthesis and antibacterial activity evaluation of N (7) position-modified balofloxacins” (Frontiers in Chemistry, 2022)
